# According to patent publication US10357491B2, “Method of treating a brain tumor” (BeyondSpring Pharmaceuticals, Inc., priority 2015, dated 2019):
# How the values were obtained:
# [1] = test system: PDGF-induced gliomas that expressed G12D mutant KRAS; test: Survival of mice with PDGF-induced gliomas expressing G12D mutant KRAS treated with Plinabulin plus TMZ plus radiation; assay type: in vivo; settings: Plinabulin 7.5 mg/kg i.p. twice a week for 10 weeks plus TMZ plus radiation 10gy x1; p=0.0149
# Procedure: Mice with PDGF-induced gliomas that expressed G12D mutant KRAS were prepared using the procedures according to Example 1 and used in this experiment. 4-6 week old nestin-tv-a/ink4a-arf−/− mice were anesthetized with Isoflurane and injected with Df-1 cells transfected RCAS-PDGF-B-HA, RCAS-KRAS. Mice were injected with one microliter of a 1:1 mixture of 2×10^5 RCAS-PDGF-B-HA/RCAS-KRAS using a stereotactic frame via a 26-gauge needle attached to a Hamilton syringe. Cells were injected into the right frontal cortex, coordinates bregma 1.75 mm, Lat −0.5 mm, and a depth of 2 mm.
# The mice were entered into two study groups. One group was treated with the combination of temozolomide (TMZ), Radiation and Plinabulin: radiation was given at 10gy×1, TMZ and Plinabulin 7.5 mg/kg in Plinabulin diluent was administered intraperitoneally twice a week on Monday and Thursday for 10 weeks. The other group, the control group, was treated with the combination of TMZ and radiation: radiation was given at 10gy×1, TMZ was administered intraperitoneally twice a week on Monday and Thursday for 10 weeks. the mice were monitored for lethargy, hunched posture, appetite loss, outward signs of tumor growth, agitation, weight-loss and overall failure to thrive. […]
# [2] = test system: PDGF-induced gliomas that expressed G12D mutant KRAS; test: Survival of mice with PDGF-induced gliomas expressing G12D mutant KRAS treated with Plinabulin; assay type: in vivo; settings: Plinabulin 7.5 mg/kg i.p. twice per week for 10 weeks; control: Plinabulin diluent only; p=0.001
# Description: Mice with PDGF-induced gliomas using RCAS/tv-a were generated. The mice were transgenic for expression of the RCAS receptor (tv-a) from the nestin promoter and having a background of ink4a/arf−/− and lox-stop-lox luciferase, were infected with RCAS-PDGF, or the combination of RCAS-PDGF and RCAS-KRAS that expressed G12D mutant KRAS. The resultant tumors occurred within the first 4-5 weeks in this background for PDGF alone, and about a week shorter for the tumors arising from the combination of PDGF and RCAS. The tumors had the histological characteristics of GBM and were identified by symptoms of lethargy and poor grooming, MRI scans using a T2 weighted sequence, or bioluminescence imaging with an IVIS system. For radiation therapy, mice were treated with 10Gy per day cranially for a single dose.
# Plinabulin was tested on mice with PDGF-induced gliomas that expressed G12D mutant KRAS. 4-6 week old nestin-tv-a/ink4a-arf−/− mice were anesthetized with Isoflurane and injected with Df-1 cells transfected RCAS-PDGF-B-HA, RCAS-KRAS. Mice were injected with one microliter of a 1:1 mixture of 2×10^5 RCAS-PDGF-B-HA/RCAS-KRAS using a stereotactic frame via a 26-gauge needle attached to a Hamilton syringe. […] The mice were monitored for lethargy, hunched posture, appetite loss, outward signs of tumor growth, agitation, weight-loss and overall failure to thrive. […]
smiles,measurement,setting,value
"CC(C)(C)c1[nH]cnc1/C=c1\[nH]c(=O)/c(=C/c2ccccc2)[nH]c1=O [Plinabulin, (3Z,6Z)-3-Benzylidene-6-{[5-(2-methyl-2-propanyl)-1H-imidazol-4-yl]methylene}-2,5-piperazinedione]",survival rate vs control group that received TMZ plus radiation (FIG. 4),[1],significantly better survival rate
same,survival rate vs control group (FIG. 3),[2],significantly better survival rate
